Consider 16 molecules from patent publication US7858790B2, “Modulators of muscarinic receptors” (Vertex Pharmaceuticals Incorporated, priority 2006, dated 2010).

Where only a bound is given, the exact number is not on record here.

The target of one assay is T1, M1 muscarinic receptor (Homo sapiens, UniProt P11229).
T1 construct: expressed in transfected cells; host or cells: CHO (M1-CHO recombinant cell line)
T1 sequence (P11229 1-460): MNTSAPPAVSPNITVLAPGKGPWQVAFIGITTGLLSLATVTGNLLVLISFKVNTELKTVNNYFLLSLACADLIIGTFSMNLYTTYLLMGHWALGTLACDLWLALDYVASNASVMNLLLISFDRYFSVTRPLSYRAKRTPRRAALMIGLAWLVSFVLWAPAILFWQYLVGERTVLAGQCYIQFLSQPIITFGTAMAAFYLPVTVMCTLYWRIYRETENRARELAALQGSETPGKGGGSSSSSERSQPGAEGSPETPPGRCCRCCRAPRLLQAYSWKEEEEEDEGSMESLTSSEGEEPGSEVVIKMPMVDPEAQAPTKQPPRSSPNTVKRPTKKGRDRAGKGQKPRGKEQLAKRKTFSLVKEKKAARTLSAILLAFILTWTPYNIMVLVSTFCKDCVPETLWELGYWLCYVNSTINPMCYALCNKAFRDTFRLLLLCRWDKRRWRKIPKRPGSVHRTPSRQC
The assay is described as follows: Functional mobilization of intracellular calcium (FLIPR) in CHO cells expressing M1 muscarinic receptor. The settings on record: for M1 Activity: CHO cells expressing M1, calcium mobilization; for Emax: CHO, 100% efficacy is the maximum response obtained with the Carbachol control. The format is cell-based. Here is the method: (§1) VI. Assays for Detecting and Measuring Inhibition Properties of Compounds Functional Mobilization of Intracellular Calcium to Determine Muscarinic Receptor Activity:
(§2) CHO cells expressing muscarinic receptors (M1 to M5) are grown as monolayers in tissue culture flasks at 37° C. in a humidified atmosphere containing 5% CO2 and passaged every 3-5 days. The growth media is Dulbecco's modified eagles medium (DMEM, Gibco Cat# 12430-054), containing 25 mM Hepes and supplemented with Fetal Bovine Serum (Hyclone, cat# SH30071.03), 0.1 mM of MEM non-essential amino acids (GIBCO, Cat# 11140-050), 1 mM MEM Sodium Pyruvate (GIBCO Cat# 11360-070) and 100 units/ml of Penicillin G and 100 μg/ml of Streptomycin (GIBCO Cat# 15140-122). The recombinant muscarinic receptor cell lines are grown under antibiotic pressure with media containing 25 μg/ml zeocin and 500 μg/ml G418 (M1-CHO), 4 μg/ml puromycin, 50 μg/ml zeocin and 2.5 μg/ml blasticidin (M2 and M4-CHO) or 50 μg/ml zeocin and 4 μg/ml puromycin (M3 and M5-CHO).
(§3) Cells are harvested at 80-90% confluence using Versene (GIBCO Cat# 15040-066), collected by centrifugation and seeded 18-24 hours prior to running the calcium assay at a density of 5,000-10,000 cells/well in […], clear-bottomed 384-well plates (BD Biocoat, poly-D-lysine, Cat#356663). The day of the experiment, the cells are washed with a plate washer (Bioteck Instruments, ELX 405) using bath buffer (140-mM NaCl, 4.5-mM KCl, 2-mM CaCl2, 1-mM MgCl2, 10-mM Hepes-Na, 10-mM Glucose, pH 7.4, with NaOH) containing 1 mM Probenecid. Next, the calcium dye Fluo-3 (25 μl/well of Fluo-3 μM at 4 μM, Molecular Probes F-1241, in Bath 1 buffer containing 1 mM Probenecid) is added to the 25 μl of Bath 1 remaining in each well after the plate wash and the dye is loaded at 37° C. in the tissue culture incubator for 60-90 min. The fluorescent dye is removed using the plate washer with Bath 1 containing 1 mM Probenecid, leaving 25 μl/well of this solution after the wash. Alternatively, cells can be loaded with the calcium indicator from Molecular Devices (Calcium 3 Assay Reagents, Cat # R7181) adding 5 μl of a 5× solution dye in Bath 1 containing 1 mM Probenecid (10 ml per dye flask cat# R7182 to generate a solution 20×) to 20 μl of the same buffer. After loading for 60 min, the experiment can be run without having to remove the dye.
(§4) Compounds are prepared at a 2× fold concentration in a 96-well plate (round bottom, Costar Corning cat# 3656), by reconstituting the pre-spotted compounds in bath 1 containing 1 mM probenecid. The final concentration DMSO is 0.5%, and the amount of DMSO is normalized across the assay plate. To determine an agonist action of the compounds on muscarinic receptors, the reconstituted compounds are added (25 μl compound/well) to the cell assay plate (containing 25 μl/well) using the multi-channel robotic system of the FLIPR 3 Instrument (Molecular Devices, Sunnyvale, Calif.). To determine a functional inhibitory-action of the compounds on muscarinic receptors, the reconstituted compounds are added (25 μl compound/well) to the assay plate and pre-incubated for 15 min prior to adding 25 μl of Carbachol at 3× the EC80 for each muscarinic subtype. Alternatively, the compounds can be co-applied simultaneously with the agonist. In both assay modes, the fluorescence is recorded for 60 sec (excitation wavelength is […] and emission wavelength 540 nm) using the FLIPR 3 instrument.
(§5) The potency, efficacy and selectivity of the muscarinic compounds were evaluated by screening the compound activity across the whole family (M1 to M5 cells). Compounds were also screened for activity on other proteins such as other GPCRs and ion channels to determine selectivity on M4 receptors.
(§6) Examples of activities and efficacies of the muscarinic compounds of formulae (I, Ia, and Ib) on modulating M1 and M4 receptors are shown below in Table 8. […]
In general terms: Calcium assays in cells follow changes in intracellular calcium, usually with a dye or a luminescent sensor.

The next assay has as its target T2, M4 muscarinic receptor (Homo sapiens, UniProt P08173).
T2 construct: expressed in transfected cells; host or cells: CHO (M4-CHO recombinant cell line)
T2 sequence (P08173 1-479): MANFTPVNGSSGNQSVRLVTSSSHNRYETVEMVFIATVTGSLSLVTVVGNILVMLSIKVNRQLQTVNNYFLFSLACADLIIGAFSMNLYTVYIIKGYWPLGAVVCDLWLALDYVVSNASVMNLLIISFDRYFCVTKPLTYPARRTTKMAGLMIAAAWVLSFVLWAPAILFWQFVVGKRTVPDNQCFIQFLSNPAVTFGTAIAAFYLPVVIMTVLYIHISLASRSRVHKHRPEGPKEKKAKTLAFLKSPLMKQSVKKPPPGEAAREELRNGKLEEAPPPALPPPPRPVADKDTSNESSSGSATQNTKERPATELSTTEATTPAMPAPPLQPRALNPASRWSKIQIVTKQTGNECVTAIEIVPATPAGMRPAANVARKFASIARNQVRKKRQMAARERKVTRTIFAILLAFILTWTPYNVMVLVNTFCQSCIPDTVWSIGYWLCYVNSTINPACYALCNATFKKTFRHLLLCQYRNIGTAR
The assay is described as follows: Functional mobilization of intracellular calcium (FLIPR) in CHO cells expressing M4 muscarinic receptor. The assay is classed as cell-based. The settings on record: for M4 Activity: CHO cells expressing M4, calcium mobilization; for Emax: CHO, 100% efficacy is the maximum response obtained with the Carbachol control. Here is the method:
as §1, §2, §3, §4, §5, §6

As usually defined, the Emax is the size of the effect at its maximum, as opposed to the concentration needed. Regarding `O=C(NC1CCC1)C1=CC2(CCN(CC3CC4C=CC3C4)CC2)c2ccccc21` (stereo not drawn) [compound 47], on M1 muscarinic receptor, the “M1 Activity” value is recorded as “++ (activity was measured to be from 2.0 μM to 10.0 μM)” and the Emax lay in the range of 25 to 100%. For the same molecule, on M4 muscarinic receptor, the “M4 Activity” value is “+++ (activity was measured to be less than 2.0 μM)” and the Emax was in the range of 25 to 100%.
Turning to `CNC(=O)C1=CC2(CCN(CCC(C)CCCC(C)(C)OC)CC2)c2ccccc21` (stereo not drawn) [compound 19], on M1 muscarinic receptor, the “M1 Activity” value is “+ (activity was measured to be greater than 10.0 μM)” and the Emax fell in the range of 25 to 100%. For the same molecule, at M4 muscarinic receptor, the “M4 Activity” value is recorded as “+ (activity was measured to be greater than 10.0 μM)” and the Emax is under 25%.
For the molecule `CNC(=O)C1=CC2(CCN(CCC3CCOCC3)CC2)c2ccccc21` [compound 8], on M1 muscarinic receptor, the “M1 Activity” value is “+ (activity was measured to be greater than 10.0 μM)” and the Emax was in the range of 25 to 100%. Also, at M4 muscarinic receptor, the “M4 Activity” value was “+ (activity was measured to be greater than 10.0 μM)” and the Emax is under 25%.
For the molecule `CC(C)NC(=O)C1=CC2(CCN(CC3CC4C=CC3C4)CC2)c2ccccc21` (stereo not drawn) [compound 66], on M1 muscarinic receptor, the “M1 Activity” value was “+ (activity was measured to be greater than 10.0 μM)” and the Emax was under 25%. In addition, on M4 muscarinic receptor, the “M4 Activity” value is given as “+++ (activity was measured to be less than 2.0 μM)” and the Emax is 25 to 100%.
`O=C(O)C1=CC2(CCN(C3C[C@@H]4CC[C@@H]3C4)CC2)c2ccccc21` (stereo in doubt) [Compound No. 48, 1′-(bicyclo[2.2.1]heptan-2-yl)spiro[indene-1,4′-piperidine]-3-carboxylic acid]: at M1 muscarinic receptor, the “M1 Activity” value is on record as “+ (activity was measured to be greater than 10.0 μM)” and the Emax lay within 25 to 100%. Also, on M4 muscarinic receptor, the “M4 Activity” value is reported as “+ (activity was measured to be greater than 10.0 μM)” and the Emax lay within 25 to 100%.
For `CCC(CC)NC(=O)C1=CC2(CCN(CC3CCCCC3)CC2)c2ccccc21` [Compound No. 68, 1′-(cyclohexylmethyl)-N-(pentan-3-yl)spiro[indene-1,4′-piperidine]-3-carboxamide], the Emax on M1 muscarinic receptor was under 25%; on M4 muscarinic receptor, 25 to 100%.
With `CNC(=O)C1=CC2(CCN(CCCCSC)CC2)c2ccccc21` [compound 49], at M1 muscarinic receptor, the “M1 Activity” value is reported as “+ (activity was measured to be greater than 10.0 μM)” and the Emax is under 25%. On M4 muscarinic receptor, the “M4 Activity” value is “+ (activity was measured to be greater than 10.0 μM)” and the Emax was under 25%.
As to `CCN(CC)C(=O)C1=CC2(CCN(CCC(C)(C)C)CC2)c2ccccc21` [compound 26], on M1 muscarinic receptor, the “M1 Activity” value was “+ (activity was measured to be greater than 10.0 μM)” and the Emax was under 25%. Besides, at M4 muscarinic receptor, the “M4 Activity” value is “+ (activity was measured to be greater than 10.0 μM)” and the Emax was under 25%.
As for `CCC(CC)NC(=O)C1=CC2(CCN(C3CCN(C(=O)N(C)C)CC3)CC2)c2ccccc21` [compound 33], on M1 muscarinic receptor, the “M1 Activity” value was “+ (activity was measured to be greater than 10.0 μM)” and the Emax is under 25%. Besides, at M4 muscarinic receptor, the “M4 Activity” value is “+ (activity was measured to be greater than 10.0 μM)” and the Emax is under 25%.
For the molecule `CCOC(=O)N1CCC(N2CCC3(CC=C(C(=O)N(C)C)c4ccccc43)CC2)CC1` [compound 4, ethyl 4-(4-(dimethylcarbamoyl)-2H-spiro[naphthalene-1,4′-piperidine]-1′-yl)piperidine-1-carboxylate], at M1 muscarinic receptor, the “M1 Activity” value was “+++ (activity was measured to be less than 2.0 μM)” and the Emax lay within 25 to 100%. On M4 muscarinic receptor, the “M4 Activity” value is listed as “+++ (activity was measured to be less than 2.0 μM)” and the Emax lay within 25 to 100%.
On to `CCOC(=O)N1CCC(N2CCC3(CC=C(C(=O)NC(C)C)c4ccccc43)CC2)CC1` [compound 72], for which, at M1 muscarinic receptor, the “M1 Activity” value is listed as “+++ (activity was measured to be less than 2.0 μM)” and the Emax lay within 25 to 100%. In addition, at M4 muscarinic receptor, the “M4 Activity” value was “+++ (activity was measured to be less than 2.0 μM)” and the Emax fell in the range of 25 to 100%.
With `C=CCOC(=O)N1CCC(N2CCC3(C=C(C(=O)NC(CC)CC)c4ccccc43)CC2)CC1` [compound 24], at M1 muscarinic receptor, the “M1 Activity” value is on record as “+ (activity was measured to be greater than 10.0 μM)” and the Emax was in the range of 25 to 100%. Further, at M4 muscarinic receptor, the “M4 Activity” value is “++ (activity was measured to be from 2.0 μM to 10.0 μM)” and the Emax was 25 to 100%.
Consider `CCC(CC)NC(=O)C1=CC2(CCN(C3C[C@@H]4CC[C@@H]3C4)CC2)c2ccccc21` (stereo in doubt) [Compound No. 14, 1′-(bicyclo[2.2.1]heptan-2-yl)-N-(pentan-3-yl)spiro[indene-1,4′-piperidine]-3-carboxamide], for which the values for the Emax on M1 muscarinic receptor and on M4 muscarinic receptor were under 25% and 25 to 100%, respectively.
As to `CC(C)(C)CCN1CCC2(C=C(C(=O)N3CCCCC3)c3ccccc32)CC1` [Compound No. 37], at M1 muscarinic receptor, the “M1 Activity” value is given as “+++ (activity was measured to be less than 2.0 μM)” and the Emax is 25 to 100%. At M4 muscarinic receptor, the “M4 Activity” value is “+++ (activity was measured to be less than 2.0 μM)” and the Emax was 25 to 100%.
Take `CCC(CC)NC(=O)C1=CC2(CCN(CC3CC4C=CC3C4)CC2)c2ccccc21` (stereo not drawn) [compound 30]: on M1 muscarinic receptor, the “M1 Activity” value is on record as “+ (activity was measured to be greater than 10.0 μM)” and the Emax is under 25%. On M4 muscarinic receptor, the “M4 Activity” value was “+++ (activity was measured to be less than 2.0 μM)” and the Emax is 25 to 100%.
Take `CCC(CC)NC(=O)C1=CC2(CCN(C3CCN(C(=O)N4CCOCC4)CC3)CC2)c2ccccc21` [compound 18]: on M1 muscarinic receptor, the “M1 Activity” value is reported as “+ (activity was measured to be greater than 10.0 μM)” and the maximal effect (Emax) was under 25%. Moreover, at M4 muscarinic receptor, the “M4 Activity” value was “+ (activity was measured to be greater than 10.0 μM)” and the maximum response (Emax) was under 25%.
